From PMC6478823, “A suite of phenotypic assays to ensure pipeline diversity when prioritizing drug-like Cryptosporidium growth inhibitors” (Nature Communications, 2019)

Legend:
[1] = system: Cryptosporidium; set-up: method as in Lee, et al. 2018. AAC; conditions: ref Lee, et al. 2018. AAC; cited from earlier work
[2] = system: C. parvum; assay: DNA replication assay (EdU incorporation); type: cell-based, Cryptosporidium parvum; conditions: compound at EC90; for DNA Synthesis Assay: Mean % Inhibition of EdU-labeling (normalized to parasite numbers), Average: average of replicates; for DNA Synthesis Assay: Mean % Inhibition of EdU-labeling (normalized to parasite numbers), Replicate 1: single replicate 1; for DNA Synthesis Assay: Mean % Inhibition of EdU-labeling (normalized to parasite numbers), Replicate 2: single replicate 2; for DNA Synthesis Assay: Mean % Inhibition of EdU-labeling (normalized to parasite numbers), Replicate 3: single replicate 3; for DNA Synthesis Assay: Mean % Inhibition of EdU-labeling (normalized to parasite numbers), Replicate 4: single replicate 4
[3] = system: C. parvum; type: cell-based, Cryptosporidium parvum; conditions: compound at EC90; for Invasion Assay: Mean % Inhibition (parasites), Average: average of replicates; for Invasion Assay: Mean % Inhibition (parasites), Replicate 1a: single biological replicate 1; for Invasion Assay: Mean % Inhibition (parasites), Replicate 2a: single biological replicate 2
[4] = system: C. parvum; assay: Egress, motility, reinvasion assay (PV ratio); conditions: compound at EC90; for Egress and Reinvasion Assay: Mean PV ratios (19.5h:6h), Average: average of replicates; for Egress and Reinvasion Assay: Mean PV ratios (19.5h:6h), Replicate 1a: single replicate 1; for Egress and Reinvasion Assay: Mean PV ratios (19.5h:6h), Replicate 2a: single replicate 2; for Egress and Reinvasion Assay: Mean PV ratios (19.5h:6h), Replicate 3a: single replicate 3; for Egress and Reinvasion Assay: Mean PV ratios (19.5h:6h), Replicate 4a: single replicate 4
Protocol: For quantification of parasitophorous vacuoles over time, HCT-8 cells were grown to greater than 90% confluence in 384-well plates and infected with 11,000 oocysts after triggering excystation.

[5] = system: C. parvum; conditions: cited from earlier work
[6] = system: Cryptosporidium; conditions: cited from earlier work
[7] = system: Cryptosporidium; set-up: method as in Gorla, et al. 2014. AAC.; conditions: ref Gorla, et al. 2014. AAC.; cited from earlier work
[8] = system: Cryptosporidium; set-up: method as in Downey, et al. 2008. AAC.; conditions: ref Downey, et al. 2008. AAC.; cited from earlier work
[9] = system: Cryptosporidium; set-up: method as in earlier work; conditions: ref Castellanos-Gonzalez, et al. 2013. JID. and Love, et al. 2017. PLoS NTD.; cited from earlier work
[10] = system: cryptosporidiosis; set-up: method as in PMID 17253532; conditions: cited from earlier work
[11] = system: cryptosporidiosis; set-up: method as in PMID 19954529; conditions: versus approximately one-quarter of untreated children; cited from earlier work
[12] = ref Love, et al. 2017. PLoS NTD.

Row | Structure (SMILES) | DNA Synthesis Assay: Mean % Inhibition of EdU-labeling (normalized to parasite numbers), Average [2] | DNA Synthesis Assay: Mean % Inhibition of EdU-labeling (normalized to parasite numbers), Replicate 1 [2] | DNA Synthesis Assay: Mean % Inhibition of EdU-labeling (normalized to parasite numbers), Replicate 2 [2] | Invasion Assay: Mean % Inhibition (parasites), Average [3] | Invasion Assay: Mean % Inhibition (parasites), Replicate 1a [3] | Invasion Assay: Mean % Inhibition (parasites), Replicate 2a [3] | Egress and Reinvasion Assay: Mean PV ratios (19.5h:6h), Average [4] | Egress and Reinvasion Assay: Mean PV ratios (19.5h:6h), Replicate 1a [4] | Egress and Reinvasion Assay: Mean PV ratios (19.5h:6h), Replicate 2a [4] | Egress and Reinvasion Assay: Mean PV ratios (19.5h:6h), Replicate 3a [4] | Egress and Reinvasion Assay: Mean PV ratios (19.5h:6h), Replicate 4a [4] | also measured
1 | CCOc1ccc2cc(-c3nn(CC4CCN(C)CC4)c4ncnc(N)c34)ccc2n1 [BKI-1369] | 16.97% | 25.00% | 8.94% | -7.94% | -5% | -11% | 1.41 | 1.20 | 1.62 | – | – | anticryptosporidial efficacy in gnotobiotic piglet model [1]: previously demonstrated anticryptosporidial efficacy
2 | CC(C)/N=c1\cc2n(-c3ccc(Cl)cc3)c3ccccc3nc-2cc1Nc1ccc(Cl)cc1 [Clofazimine] | 88.58% | 99.92% | 100.00% | 66.45% | 65% | 68% | 0.77 | 1.03 | 1.03 | 0.51 | 0.49 | DNA Synthesis Assay: Mean % Inhibition of EdU-labeling (normalized to parasite numbers), Replicate 3 [2]: 87.22%; DNA Synthesis Assay: Mean % Inhibition of EdU-labeling (normalized to parasite numbers), Replicate 4 [2]: 73.51%; DNA Synthesis Assay: Mean % Inhibition of EdU-labeling (normalized to parasite numbers), Replicate 5 ([2]; single replicate 5): 82.28%; efficacy in chronic NOD SCID gamma (NSG) mouse model [5]: not efficacious; activity in NOD SCID γ mouse model [5, 12]: inactive; efficacy in acute, self-resolving IFN-γ KO mouse model [6]: efficacious; activity in IFN-γ knockout mouse model [6, 12]: active
3 | CC(=NOCCN)c1cccc(C(C)(C)NC(=O)Nc2ccc(Cl)c(C(F)(F)F)c2)c1 [P257] | 97.76% | 97.49% | 98.03% | 9.88% | 4% | 16% | 0.84 | 1.06 | 0.97 | 0.68 | 0.65 | efficacy in the acute IL-12 knockout mouse model of cryptosporidiosis [7]: efficacious
4 | Cc1cc(/C=C/c2ccc3cc(N(C)C)ccc3[n+]2C)c(C)n1-c1ccccc1 [Pyrvinium pamoate] | – | 94.57% | 70.33% | 25.69% | 30% | 22% | 0.61 | 0.97 | 0.85 | 0.33 | 0.30 | anticryptosporidial activity in neonatal mouse model [8]: previously demonstrated anticryptosporidial activity; DNA synthesis (mean % inhibition) ([2]; EdU added 9 h post-infection for 2 h): 88.30%
5 | CCOc1ccc2cc(-c3nn(CC4CCN(C)CC4)c4ncnc(N)c34)ccc2c1 [BKI-1294] | -5.73% | -9.55% | -1.92% | -6.64% | 12% | -26% | 1.49 | 1.81 | 1.18 | – | – | anticryptosporidial activity in SCID beige mice [9]: previously demonstrated anticryptosporidial activity; anticryptosporidial activity in the acute IFN-γ knockout mouse infection model ([6]; ref Castellanos-Gonzalez, et al. 2013. JID. and Love, et al. 2017. PLoS NTD.): previously demonstrated anticryptosporidial activity
6 | O=C(Nc1ccc(Cl)cc1)N1CCN(c2ccc3nncn3n2)CC1 [D-1] | 23.98% | 20.68% | 7.95% | -25.16% | -22% | -29% | 1.86 | 1.12 | 1.70 | 3.12 | 1.50 | DNA Synthesis Assay: Mean % Inhibition of EdU-labeling (normalized to parasite numbers), Replicate 3 [2]: 36.52%; DNA Synthesis Assay: Mean % Inhibition of EdU-labeling (normalized to parasite numbers), Replicate 4 [2]: 30.78%; efficacy in chronic NSG mouse model [5]: efficacious; activity in NSG mouse model ([5]; ref Jumani, et al. 2018. AAC.): Active; efficacy in acute IFN-γ KO mouse model [6]: efficacious
7 | CC(=O)Oc1ccccc1C(=O)Nc1ncc([N+](=O)[O-])s1 [Nitazoxanide] | -9.16% | -33.81% | 15.50% | 13.83% | 11% | 17% | 1.40 | 1.33 | 1.77 | 1.37 | 1.12 | effect on host cell invasion / parasitophorous vacuole formation ([3]; result in words): no significant effect on parasitophorous vacuole formation; efficacy in AIDS patients [10]: equivalent to a placebo; improvement after 1 week of treatment in young children [11]: just over half of children studied
